From patent publication US20240374558A1, “PREPARATION OF PHENE[…] […] STEREOISOMERS THEREOF AND PRECURSORS THEREOF” (priority 2022, published 2024)
“Also recorded” adds a separate entry of the source. Structures can show the parent of a compound that is named as a salt.

Experiments:
Kc4.3/ChIP2 = biological target: T1, Kc4.3/ChIP2 (Homo sapiens, UniProt Q9UK17); assay: hKv4.3/hKChIP2 Potassium Channel Assay, Qube APC; assay type: cell-based; conditions: Antagonist mode; HEK-Kv4.3/KChIP2; test compound
T1 construct: host or cells: HEK
T1 sequence (Q9UK17 1-655): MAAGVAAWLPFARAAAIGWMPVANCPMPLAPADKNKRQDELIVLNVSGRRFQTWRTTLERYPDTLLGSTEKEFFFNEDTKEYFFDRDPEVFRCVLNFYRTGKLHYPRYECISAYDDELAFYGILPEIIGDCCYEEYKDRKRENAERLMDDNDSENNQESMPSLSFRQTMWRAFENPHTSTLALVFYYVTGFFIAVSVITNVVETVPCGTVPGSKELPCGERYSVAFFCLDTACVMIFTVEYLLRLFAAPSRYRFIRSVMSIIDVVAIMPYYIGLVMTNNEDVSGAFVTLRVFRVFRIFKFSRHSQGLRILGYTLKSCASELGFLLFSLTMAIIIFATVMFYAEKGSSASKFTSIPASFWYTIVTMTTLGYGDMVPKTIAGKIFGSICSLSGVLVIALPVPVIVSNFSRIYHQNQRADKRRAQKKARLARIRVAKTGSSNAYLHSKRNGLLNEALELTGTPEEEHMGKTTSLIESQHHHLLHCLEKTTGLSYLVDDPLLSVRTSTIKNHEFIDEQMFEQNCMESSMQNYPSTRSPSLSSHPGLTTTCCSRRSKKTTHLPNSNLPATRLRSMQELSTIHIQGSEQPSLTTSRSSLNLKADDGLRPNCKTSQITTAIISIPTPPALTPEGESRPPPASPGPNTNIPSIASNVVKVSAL
T1 sequence (Q9NS61 1-270 partner): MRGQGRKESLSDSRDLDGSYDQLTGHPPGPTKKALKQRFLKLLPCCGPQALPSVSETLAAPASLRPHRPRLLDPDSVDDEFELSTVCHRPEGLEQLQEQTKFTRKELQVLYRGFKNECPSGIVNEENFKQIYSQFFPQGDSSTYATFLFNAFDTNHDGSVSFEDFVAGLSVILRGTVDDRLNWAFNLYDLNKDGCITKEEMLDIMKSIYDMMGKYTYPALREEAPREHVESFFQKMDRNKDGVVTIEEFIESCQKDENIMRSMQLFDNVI
Description: Electrophysiological assays were conducted to profile three compounds ((R)-methylone, (S)-methylone, or racemic methylone) for activities on the ion channel targets specified below using the Qube electrophysiological platform. Where presented, IC50 values were determined by a non-linear, least squares regression analysis. Reference standards were run as an integral part of each assay to ensure the validity of the results obtained.
Ion Channels tested were Eurofins Panel Part Number: CPROFullQB2DR Voltage-Gated Sodium: HEK-Nav1.5 (Peak), HEK-Nav1.5 (Late, Antagonist) Voltage-Gated Potassium: HEK-Kv4.3/KChIP2, CHO-hERG, CHO-KCNQ1/minK Voltage-Gated Calcium: HEK-Cav1.2 Inward-Rectifying Voltage-Gated Potassium: HEK-Kir2.1.
Methods employed in this study have been developed and validated with reliability and reproducibility by Eurofins. Assays were performed under conditions below. [0217] hNavL.5 Sodium Channel Assay—Qube APC Onset and steady state block of peak Nay1.5 current is measured using a pulse pattern, repeated every 5 sec, consisting of a hyperpolarizing pulse to −120 mV for a 200 ms duration, depolarization to −15 mV amplitude for a 40 ms duration, followed by step to 40 mV for 200 ms and finally a 100 ms ramp (1.2 V/s) to a holding potential of −80 mV. Peak current is measured during the step to −15 mV. […] Onset and steady state block of hKv4.3 current is measured using a pulse pattern from −80 mV to 40 mV amplitude for a 110 ms duration, and finally a 100 ms ramp (1.2 V/s) to −80 mV. […] [0220] hNav1.5 Late Current Sodium Channel Assay—Qube APC Onset and steady state block of Late Nay1.5 current is measured using a pulse pattern, repeated every 5 sec, consisting of a hyperpolarizing pulse to −120 mV for a 200 ms duration, depolarization to −15 mV amplitude for a 40 ms duration, followed by step to 40 mV for 200 ms and finally a 100 ms ramp (1.2 V/s) to a holding potential of −80 mV. Late current is measured as charge current elicited during the ramp with 50 nM ATXII.

[1] = system: rat forced swim test (FST); assay: Rat forced swim test (FST); assay type: in vivo; conditions: single dose 10 mg/kg, IP, 30 min before testing
Description: The forced swim test (FST) is a classic model to assess the antidepressant-like activity of compounds that has been in use for over 40 years (Porsolt et al. (1977) Nature 266:730-732; Detke et al. (1995) Psychopharmacology 121:66-72). […] A single dose of 5 mg/kg methylone reduces immobility by approximately 50% compared to vehicle-treated controls, whereas a 15 mg/kg dose reduces immobility by nearly 100%. Accompanying changes in climbing and/or swimming behavior reflect noradrenergic and serotonergic activities of methylone, respectively.
All FST studies are performed and scored by an experimenter blind to treatment group and according to standard protocols. Briefly, rats are placed in a circular plexiglass container filled with water. Water temperature is maintained at 22-25° C. and changed for every animal. Day 1 (Training) consists of a 15 min acclimation trial, and Day 2 (Testing, 24 h later) consists of the 5 min test. A time sampling procedure is employed where animals are observed every 5 seconds for the duration of the test session (60 counts or 5 minutes) and scored for immobility (defined as the failure to struggle), swimming (defined as a circular movement around the tank), or climbing (defined as an upwards escape behavior). Data are expressed as the percent of the testing session (e.g., the number of immobility counts divided by 60). A p-value less than 0.05 indicates statistical significance after typical statistical analyses (e.g., unpaired t-test or ANOVA).
To determine that the prodrug and/or enantiomer has an antidepressant-like effect and to compare it to methylone, rats are treated with each compound 30 min prior to testing. Additional tests are run 24, 72, 168 hours post-dose or longer. Effects on Fear Extinction in a Model of Post-Traumatic Stress Disorder (PTSD)
Racemic methylone (10 mg/kg, IP) has a maximal antidepressant-like effect in the rat forced swim test (FST), reducing immobility by nearly 100% compared to vehicle treated controls. […]

Row | SMILES | Estimated IC50 (Kc4.3/ChIP2) | antidepressant-like effect (immobility) compared to vehicle [1] | antidepressant-like effect (immobility) compared to vehicle ([1]; 10 mg/kg)
1 | CN[C@H](C)C(=O)c1ccc2c(c1)OCO2 [(R)-methylone] | N/C (N/C indicates observed mean inhibition was <25%) | no effect | 
2 | CN[C@@H](C)C(=O)c1ccc2c(c1)OCO2 [(S)-methylone] | N/C (N/C indicates observed mean inhibition was <25%) |  | Mimics the Rapid and Robust Antidepressant-like Activity of Racemic Methylone; also recorded: mimicked the rapid and robust antidepressant-like effect of racemic methylone
3 | CNC(C)C(=O)c1ccc2c(c1)OCO2 (centres unmarked) [Methylone HCl, methylone HCl] | N/C (N/C indicates observed mean inhibition was <25%) |  | 
